Each block holds one compound with its values, some of them ahead of it.
Columns and labels:
MDA-MB-231 cells = assay: MTT cell viability assay; type: cell-based, human; conditions: for inhibition at 10 µM: Homo sapiens, MDA-MB-231, 48 h, read-out: Antiproliferative activity at 10μM in MDA-MB-231; for inhibition at 10 µM / Antiproliferative activity at 10μM in MDA-MB-231: % inhibition
Description: (§1) Cell viability assay was performed as described previously. Briefly, cells were seeded in 96 well plates and treated with different concentrations of compound 19 for 48 h. After drug treatment, MTT reagent was added in each well of the plate and cell viability was quantified by measuring the absorbance at 590 nm.

FEN1 protein = target: T1, FEN1 protein (Homo sapiens, UniProt P39748); assay: Flap cleavage assay; type: biochemical; conditions: compound 19 at 5, 10, 20 µM
T1 construct: His-tag (C); made in house; host or cells: E. coli BL21DE3
T1 sequence (P39748 whole entry): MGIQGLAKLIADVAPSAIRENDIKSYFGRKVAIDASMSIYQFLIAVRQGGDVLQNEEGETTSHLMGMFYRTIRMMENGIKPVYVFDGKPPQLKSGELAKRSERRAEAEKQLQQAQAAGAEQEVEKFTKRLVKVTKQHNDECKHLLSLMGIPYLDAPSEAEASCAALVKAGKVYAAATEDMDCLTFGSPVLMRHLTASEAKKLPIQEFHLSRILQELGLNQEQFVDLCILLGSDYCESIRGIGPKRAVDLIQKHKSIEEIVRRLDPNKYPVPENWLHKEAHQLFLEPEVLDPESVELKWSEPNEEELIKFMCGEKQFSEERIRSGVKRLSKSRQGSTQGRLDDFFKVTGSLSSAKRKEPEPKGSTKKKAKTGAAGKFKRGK
Description: Purification of FEN 1: Full length FEN1 DNA template was taken from pShuttle-FEN1hWT, a gift from Sheila Stewart (Addgene plasmid#35027) is subcloned into a pET41a expression vector containing C-terminal His-tag. pET41FEN1His freshly transformed into expression host BL21DE3 E. coli cells (Novagene), single colonies picked and inoculated in 5ml of LB media containing 50μg/ml of Kanamycin, grown for 3 to 4 hrs and further subcultured in 100 ml of LB medium containing 50μg/ml of Kanamycin and grown at 37°C till the OD reached to 0.6-0.7, induced at 0.5 mM IPTG at 16°C for 18hrs. Pellets were collected and lysed in 20 mM tris 150 mM NaCl (Lysis buffer) containing 1mM PMSF and 1mM benzamidine hydrochloride and purified by Ni-NTA affinity chromatography.
Flap cleavage assay: All oligos were purchased from Integrated DNA Technologies and dissolved in nuclase free water at concentration of 100μM. FAM-labeled 25+6 Flap-mer (5’-[…]-3’*6FAM)) was annealed with 52- mer (5’-[…]-3’) and 27-mer (5’-[…]-3’) to form a complementary double strand flap cleavage substrate. […] The cleaved and uncleaved DNA molecules are separated on 15% Urea gel and bands were detected by Image Quant LAS 4010 (GE Healthcare).

[1] = tested on: 4T1 (Mouse Breast Cancer); assay: MTT cell viability assay; type: cell-based; conditions: 10 µM
Description: as §1

A549 (Lung) = assay: MTT cell viability assay; type: cell-based
Description: as §1

DLD1 (Colon) = assay: MTT cell viability assay; type: cell-based
Description: as §1

PANC-1 (Pancreas) = assay: MTT cell viability assay; type: cell-based
Description: as §1

A172 (Brain) = assay: MTT cell viability assay; type: cell-based
Description: as §1

PLC/PRF/5 (Liver) = assay: MTT cell viability assay; type: cell-based
Description: as §1

SK-OV-3 (Ovary) = assay: MTT cell viability assay; type: cell-based
Description: as §1

- melting point: 188 to 189 °C
Compound: COc1cccc2c1ccc1c(/C=C/c3ccc(C#N)cc3)cc(=O)oc12 [Compound 25]
- inhibition at 10 µM (MDA-MB-231 cells): 27.9%

- melting point: 178 to 179 °C
Compound: Cc1cccc2c1ccc1c(/C=C/c3ccccc3)cc(=O)oc12 [Compound 32]
- inhibition at 10 µM (MDA-MB-231 cells): 18.2%

- melting point: 180 to 182 °C
Compound: COc1ccc(/C=C/c2cc(=O)oc3c2ccc2ccccc23)cc1OC [Compound 17]

- melting point: 160 to 161 °C
Compound: COc1cccc(OC)c1/C=C/c1cc(=O)oc2c1ccc1c(C)cccc12 [Compound 37]
- inhibition at 10 µM (MDA-MB-231 cells): 11.6%

- melting point: 170 to 171 °C
Compound: COc1ccc(/C=C/c2cc(=O)oc3c2ccc2c(OC)cccc23)cc1 [Compound 23]
- inhibition at 10 µM (MDA-MB-231 cells): 6.04%

- melting point: 145 to 146 °C
Compound: COc1cccc(/C=C/c2cc(=O)oc3c2ccc2ccccc23)c1 [Compound 15]

- melting point: 168 to 170 °C
Compound: COc1ccc(OC)c(/C=C/c2cc(=O)oc3c2ccc2ccccc23)c1 [Compound 20]
- inhibition at 10 µM (MDA-MB-231 cells): 7.53%

- melting point: 142 to 144 °C
Compound: COc1ccc(/C=C/c2cc(=O)oc3c2ccc2ccccc23)cc1 [Compound 11]
- inhibition at 10 µM (MDA-MB-231 cells): 1.46%

- melting point: 238 to 239 °C
Compound: Cc1cccc2c1ccc1c(/C=C/c3ccc([N+](=O)[O-])cc3)cc(=O)oc12 [Compound 33]
- inhibition at 10 µM (MDA-MB-231 cells): 6.12%

- melting point: 181 to 183 °C
Compound: COc1ccc(/C=C/c2cc(=O)oc3c2ccc2ccccc23)c(OC)c1 [Compound 21]
- inhibition at 10 µM (MDA-MB-231 cells): 0.16%

- melting point: 174 to 175 °C
Compound: COc1cccc(OC)c1/C=C/c1cc(=O)oc2c1ccc1ccccc12 [Compound 16]
- % Inhibition of cell viability at 10 µM, MDA-MB-231 (Breast) (MDA-MB-231 cells; 10 µM): 56.48%
- inhibition at 10 µM (MDA-MB-231 cells): > 50%
- % Inhibition of cell viability at 10 µM, 4T1 (Mouse Breast Cancer) [1]: 33.89%
- % Inhibition of cell viability at 10 µM, A172 (Brain) (A172 (Brain)): NA (NA= Not active (% Inhibition <30%))
- % Inhibition of cell viability at 10 µM, A549 (Lung) (A549 (Lung)): NA (NA= Not active (% Inhibition <30%))
- % Inhibition of cell viability at 10 µM, DLD1 (Colon) (DLD1 (Colon)): NA (NA= Not active (% Inhibition <30%))
- % Inhibition of cell viability at 10 µM, PANC-1 (Pancreas) (PANC-1 (Pancreas)): NA (NA= Not active (% Inhibition <30%))
- % Inhibition of cell viability at 10 µM, PLC/PRF/5 (Liver) (PLC/PRF/5 (Liver)): NA (NA= Not active (% Inhibition <30%))
- % Inhibition of cell viability at 10 µM, SK-OV-3 (Ovary) (SK-OV-3 (Ovary)): NA (NA= Not active (% Inhibition <30%))

- melting point: 172 to 173 °C
Compound: COc1cc(/C=C/c2cc(=O)oc3c2ccc2ccccc23)cc(OC)c1OC [Compound 18]
- inhibition at 10 µM (MDA-MB-231 cells): 8.2%

- melting point: 220 to 222 °C
Compound: COc1cccc2c1ccc1c(/C=C/c3ccc([N+](=O)[O-])cc3)cc(=O)oc12 [Compound 24]
- inhibition at 10 µM (MDA-MB-231 cells): 20%

The next lines start with the compound.

Compound: COc1ccc(/C=C/c2cc(=O)oc3c2ccc2c(OC)cccc23)c(OC)c1 [Compound 30]
- inhibition at 10 µM (MDA-MB-231 cells): 17.9%

Compound: O=C(O)c1cc[c]([Sb](=[O])([OH])[OH])cc1[N+](=O)[O-] [NSC13755, reference compound]
- Inhibition of FEN1 flap cleavage activity (FEN1 protein): less clevage

Compound: COc1cc(/C=C/c2cc(=O)oc3c2ccc2c(OC)cccc23)cc(OC)c1OC [Compound 31]
- inhibition at 10 µM (MDA-MB-231 cells): 1.7%
- melting point: 205 to 206 °C

Compound: COc1ccc(/C=C/c2cc(=O)oc3c2ccc2c(OC)cccc23)cc1OC [Compound 27]
- inhibition at 10 µM (MDA-MB-231 cells): 8.81%

Compound: COc1cc(/C=C/c2cc(=O)oc3c2ccc2c(C)cccc23)cc(OC)c1OC [Compound 38]
- inhibition at 10 µM (MDA-MB-231 cells): 22%

Compound: COc1ccc(/C=C/c2cc(=O)oc3c2ccc2c(C)cccc23)cc1OC [Compound 39]
- inhibition at 10 µM (MDA-MB-231 cells): 10.1%

Compound: COc1ccc(/C=C/c2cc(=O)oc3c2ccc2c(C)cccc23)c(OC)c1 [Compound 35]
- inhibition at 10 µM (MDA-MB-231 cells): 12.8%

Compound: COc1cc(/C=C/c2cc(=O)oc3c2ccc2c(OC)cccc23)cc(OC)c1 [Compound 26]
- Antiproliferative activity at 10μM in MDA-MB-231 (MDA-MB-231 cells): 50.03%
- % Inhibition of cell viability at 10 µM, 4T1 (Mouse Breast Cancer) [1]: 36.12%
- % Inhibition of cell viability at 10 µM, A549 (Lung) (A549 (Lung)): NA (NA= Not active (% Inhibition <30%))
- % Inhibition of cell viability at 10 µM, DLD1 (Colon) (DLD1 (Colon)): NA (NA= Not active (% Inhibition <30%))
- % Inhibition of cell viability at 10 µM, PANC-1 (Pancreas) (PANC-1 (Pancreas)): NA (NA= Not active (% Inhibition <30%))

Compound: COc1cc(/C=C/c2cc(=O)oc3c2ccc2c(C)cccc23)cc(OC)c1 [Compound 34]
- inhibition at 10 µM (MDA-MB-231 cells): 0.54%

Compound: COc1cccc(OC)c1/C=C/c1cc(=O)oc2c1ccc1c(OC)cccc12 [Compound 28]
- melting point: 178 to 179 °C

Compound: COc1ccc(OC)c(/C=C/c2cc(=O)oc3c2ccc2c(OC)cccc23)c1 [Compound 29]
- inhibition at 10 µM (MDA-MB-231 cells): 10.4%

Compound: N#Cc1ccc(/C=C/c2cc(=O)oc3c2ccc2ccccc23)cc1 [Compound 14]
- inhibition at 10 µM (MDA-MB-231 cells): 12.4%

Compound: CN(C)c1ccc(/C=C/c2cc(=O)oc3c2ccc2ccccc23)cc1 [Compound 12]
- Antiproliferative activity at 10μM in MDA-MB-231 (MDA-MB-231 cells): 4.62%
